Patent US20260265329A1, “POLYPEPTIDE AND DERIVATIVE THEREOF, COMPOSITION, AND USE THEREOF” (HANGZHOU SCIWIND BIOSCIENCES CO., LTD., priority 2023, published 2026)
pEC50: −log10 of the molar value. Non-standard residues stand in square brackets, D forms with d. Residues, ends and D or L forms follow the SMILES beside them. *: point of attachment. C20 diacid = O=C(O)CCCCCCCCCCCCCCCCCCC(=O)*; Hyp = O=C(O)[C@@H]1C[C@@H](O)CN1; Trx = NC[C@H]1CC[C@H](C(=O)O)CC1; AEEA = NCCOCCOCC(=O)O; Inp = O=C(O)C1CCNCC1

Biological target: T1, human amylin receptors (Homo sapiens, UniProt O60896+P30988)
T1 construct: host or cells: CHO-K1/Ga15/AMY3 cells, further stably transfected with a CRE-luciferase plasmid
T1 sequence (P30988 25-474): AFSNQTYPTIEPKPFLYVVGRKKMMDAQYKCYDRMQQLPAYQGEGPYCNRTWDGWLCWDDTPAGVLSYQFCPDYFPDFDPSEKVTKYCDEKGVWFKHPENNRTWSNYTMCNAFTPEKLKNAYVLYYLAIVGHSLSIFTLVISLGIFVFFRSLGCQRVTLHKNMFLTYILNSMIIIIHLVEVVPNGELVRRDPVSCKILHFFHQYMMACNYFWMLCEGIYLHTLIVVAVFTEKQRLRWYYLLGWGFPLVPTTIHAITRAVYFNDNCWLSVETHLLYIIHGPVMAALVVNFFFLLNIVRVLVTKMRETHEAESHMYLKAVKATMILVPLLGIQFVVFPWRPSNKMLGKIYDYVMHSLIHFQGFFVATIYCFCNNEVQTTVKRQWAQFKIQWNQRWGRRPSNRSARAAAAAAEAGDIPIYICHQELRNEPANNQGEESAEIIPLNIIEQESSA
T1 sequence (O60896 24-148 partner): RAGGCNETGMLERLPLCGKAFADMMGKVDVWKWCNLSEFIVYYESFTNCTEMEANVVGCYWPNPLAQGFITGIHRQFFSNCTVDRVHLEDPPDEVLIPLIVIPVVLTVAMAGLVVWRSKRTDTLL
Assay: Luciferase assay in stably transfected amylin receptor/CRE-luc CHO cell line
Format: cell-based
Conditions: for Relative activity: EC50 ratio of Cagrilintide to the compound, Cagrilintide 100%; for pEC50: amylin receptor/CRE-luc CHO cells, 24 hours incubation, luminescence
From the text: The objective of this assay is to test the potency of derivatives of polypeptides of the present application on human amylin receptors in vitro using a luciferase assay. Using the standard protocol, CHO-K1/Ga15/AMY3 cells (purchased from GenScript, with the calcitonin receptor and the receptor activity modifying peptide (RAMP) constructed already) were transfected with a plasmid containing a luciferase expression cassette driven by multiple copies of cAMP response elements (CREs). The cells were cultured in an F12 medium containing 200 μg/mL Zeocin, 2 μg/mL puromycin, 100 μg/mL hygromycin, and 400 μg/mL G418 to afford a stably transfected amylin receptor/CRE-luc cell line. The lyophilized powder from Example 1 was dissolved in 20 mM phosphate buffer solution with a pH of 7.0, and diluted in a growth medium (F12 culture medium containing 10% FBS) to give a derivative sample with an initial concentration of 10 nM, which was then subjected to a 5-fold serial dilution in the growth medium to obtain seven samples with concentrations between […]. In each well of a white 96-well plate, 50 μL of the tested sample solution was added with a corresponding concentration. The stably transfected amylin receptor/CRE-luc CHO cells were resuspended in the growth medium at a certain density, and 50 μL of the cell suspension was added at a density of about 20000 cells per well to the white 96-well plate containing the tested sample solution. After incubation of 24 hours at 37° C. and 5% CO2, 100 μL of a Luciferase substrate was added to each well, incubated for 3 minutes, and finally was tested for luminescence on SpectraMax L (Molecular Devices) with the software SoftMax Pro 7.0.3 GxP.

Row | Relative activity [%] | pEC50 | SMILES
1 | 126 | 10.64 | CC[C@H](C)[C@H](NC(=O)[C@H](CC(=O)O)NC(=O)[C@H](CCCNC(=N)N)NC(=O)[C@H](CC(=O)O)NC(=O)[C@H](CCCNC(=N)N)NC(=O)[C@H](CC(=O)O)NC(=O)[C@@H](NC(=O)[C@H](Cc1ccccc1)NC(=O)[C@H](Cc1c[nH]cn1)NC(=O)[C@H](CCCNC(=N)N)NC(=O)[C@H](CC(C)C)NC(=O)[C@H](Cc1ccccc1)NC(=O)[C@H](CC(=O)O)NC(=O)[C@H](C)NC(=O)[C@H](CC(C)C)NC(=O)[C@H](CCCNC(=N)N)NC(=O)[C@H](CCC(N)=O)NC(=O)[C@@H](NC(=O)[C@H](C)NC(=O)[C@H](C)NC(=O)[C@@H](NC(=O)[C@H](CO)NC(=O)[C@H](CC(C)C)NC(=O)[C@H](CCC(N)=O)NC(=O)[C@H](CO)NC(=O)[C@H](C)NC(=O)COCCOCCNC(=O)COCCOCCNC(=O)C1CCN(C(=O)CCCCCCCCCCCCCCCCCCC(=O)O)CC1)[C@@H](C)O)[C@@H](C)O)[C@@H](C)O)C(=O)N[C@@H](CC(C)C)C(=O)N1CCC[C@H]1C(=O)N1CCC[C@H]1C(=O)N[C@H](C(=O)N[C@@H](CC(N)=O)C(=O)N[C@H](C(=O)NCC(=O)N[C@@H](CO)C(=O)N[C@@H](CC(N)=O)C(=O)N[C@H](C(=O)N1CCC[C@H]1C(N)=O)[C@@H](C)O)C(C)C)[C@@H](C)O [M21] ({C20 diacid-Inp-AEEA-AEEA}-ASQLSTAATQRLADFLRHFTDRDRDILPPTNVGSNTP-NH2)
2 | 103 | 10.31 | CC[C@H](C)[C@H](NC(=O)[C@@H]1CCCN1C(=O)[C@H](CCCCN)NC(=O)[C@H](CC(C)C)NC(=O)[C@H](CC(N)=O)NC(=O)[C@H](CC(N)=O)NC(=O)[C@H](CO)NC(=O)[C@H](CO)NC(=O)[C@H](Cc1c[nH]cn1)NC(=O)[C@H](CCCNC(=N)N)NC(=O)[C@H](CC(C)C)NC(=O)[C@H](Cc1ccccc1)NC(=O)[C@H](CC(=O)O)NC(=O)[C@H](C)NC(=O)[C@H](CC(C)C)NC(=O)[C@H](CCCNC(=N)N)NC(=O)[C@H](CCC(N)=O)NC(=O)[C@@H](NC(=O)[C@H](C)NC(=O)[C@H](C)NC(=O)[C@@H](NC(=O)[C@H](CO)NC(=O)[C@H](CC(C)C)NC(=O)[C@H](CCC(N)=O)NC(=O)[C@H](CO)NC(=O)[C@H](C)NC(=O)[C@H](CCC(=O)O)NC(=O)CCCCCCCCCCCCCCCCCCC(=O)O)[C@@H](C)O)[C@@H](C)O)C(=O)N[C@@H](CC(C)C)C(=O)N1CCC[C@H]1C(=O)N1CCC[C@H]1C(=O)N[C@H](C(=O)N[C@@H](CC(N)=O)C(=O)N[C@H](C(=O)NCC(=O)N[C@@H](CO)C(=O)N[C@@H](CC(N)=O)C(=O)N[C@H](C(=O)N1C[C@H](O)C[C@H]1C(N)=O)[C@@H](C)O)C(C)C)[C@@H](C)O [M26] ({C20 diacid}-EASQLSTAATQRLADFLRHSSNNLKPILPPTNVGSNT[Hyp]-NH2)
3 | 412 |  | CC[C@H](C)[C@H](NC(=O)[C@@H]1CCCN1C(=O)[C@H](CCCCN)NC(=O)[C@H](CC(C)C)NC(=O)[C@H](CC(N)=O)NC(=O)[C@H](CC(N)=O)NC(=O)[C@H](CO)NC(=O)[C@H](CO)NC(=O)[C@H](Cc1c[nH]cn1)NC(=O)[C@H](CCCNC(=N)N)NC(=O)[C@H](CC(C)C)NC(=O)[C@H](Cc1ccccc1)NC(=O)[C@H](CC(=O)O)NC(=O)[C@H](C)NC(=O)[C@H](CC(C)C)NC(=O)[C@H](CCCNC(=N)N)NC(=O)[C@H](CCC(N)=O)NC(=O)[C@@H](NC(=O)[C@H](C)NC(=O)[C@H](C)NC(=O)[C@@H](NC(=O)[C@H](CO)NC(=O)[C@H](CC(C)C)NC(=O)[C@H](CCC(N)=O)NC(=O)[C@H](CO)NC(=O)[C@H](C)NC(=O)[C@H]1CC[C@H](CNC(=O)CCCCCCCCCCCCCCCCCCC(=O)O)CC1)[C@@H](C)O)[C@@H](C)O)C(=O)N[C@@H](CC(C)C)C(=O)N1CCC[C@H]1C(=O)N1CCC[C@H]1C(=O)N[C@H](C(=O)N[C@@H](CC(N)=O)C(=O)N[C@H](C(=O)NCC(=O)N[C@@H](CO)C(=O)N[C@@H](CC(N)=O)C(=O)N[C@H](C(=O)N1C[C@H](O)C[C@H]1C(N)=O)[C@@H](C)O)C(C)C)[C@@H](C)O [M29] ({C20 diacid-Trx}-ASQLSTAATQRLADFLRHSSNNLKPILPPTNVGSNT[Hyp]-NH2)
